In patent US9029092B2, “Solution phase homogeneous assays” (Beckman Coulter, Inc., priority 2009, dated 2015):

Tested on: biotinylated HRP
Test: Model system for selection of SSIA (AK1/streptavidin BSA microparticles + biotinylated HRP)
Assay type: biochemical, horseradish
Conditions: SSIA 100 μM final; for light intensity, BTN-HRP0: Btn-HRP 0 ng/mL; for light intensity, BTN-HRP0 / light intensity, BTN-HRP1 / light intensity, BTN-HRP10 / light intensity, BTN-HRP100 / light intensity, BTN-HRP250: total HRP 500 ng/mL; for S1/S0: Btn-HRP 1 ng/mL vs 0; for light intensity, BTN-HRP1: Btn-HRP 1 ng/mL; for S2/S0: Btn-HRP 10 ng/mL vs 0; for light intensity, BTN-HRP10: Btn-HRP 10 ng/mL; for S3/S0: Btn-HRP 100 ng/mL vs 0; for light intensity, BTN-HRP100: Btn-HRP 100 ng/mL; for S4/S0: Btn-HRP 250 ng/mL vs 0; for light intensity, BTN-HRP250: Btn-HRP 250 ng/mL
Protocol: The model system uses a microparticle conjugated to BSA (bovine serum albumin) labeled with a […] and acridan ketenedithioacetal chemiluminescent label (AK1) as the chemiluminescent-labeled sbp, and biotinylated HRP as the activator-labeled specific binding pair. In the model system, varying amounts of Btn-HRP is added to the chemiluminescent-labeled specific binding pair at 0, 1, 10, 100 and 250 ng/mL. Additional unlabeled HRP is added to reach a total HRP of concentration of 500 ng/mL in each reaction mixture. The unlabeled HRP in combination with the activator-labeled sbp was provided to the chemiluminescent-labeled sbp microparticles to emulate sample. A compound for assessment as an SSIA was also added. This reaction mixture of the model system is then triggered by addition of trigger solution in a manner of assays of the present disclosure.
To prepare the chemiluminescent-labeled sbp on microparticles, Bovine Serum Albumin (BSA) was biotinylated with 4× molar excess of biotin-LC-sulfoNHS (Pierce Biotechnology Inc., Rockford, Ill., USA). Unbound reactants were removed via desalting or dialysis. The biotin-BSA was then reacted with a 5× molar excess of an NHS ester of acridan ketenedithioacetal AK1 in 20 mM sodium phosphate pH 7.2: DMSO 75:25, v/v) followed by desalting in the same buffer. The dual labeled (biotin and AK1) BSA was then coupled with tosyl activated M280 microparticles (Invitrogen Corporation, Carlsbad, Calif., USA) in a 0.1M borate buffer pH 9.5 at a concentration of about 20 μg of labeled BSA per mg of microparticles for 16-24 h at 40° C. After coupling the microparticles were stripped for 1 h at 40° C. with 0.2 M TRIS base, 2% SDS, pH˜11. The stripping process was repeated one additional time. Microparticles were then suspended in a 0.1% BSA/TRIS buffered saline (BSA/TBS) buffer and streptavidin (SA) was added at approximately 15 μg SA per mg microparticles. Streptavidin was mixed with the microparticles for 45-50 min at room temperature. The microparticles were then washed three times and suspended in the same BSA/TBS.
HRP, (Roche Diagnostics, Indianapolis, Ind., USA) was biotinylated with 4× molar excess of biotin-LC-sulfoNHS (Pierce Biotechnology Inc., Rockford, Ill., USA). Alternatively, 25× molar excess of biotin-PEO4-NHS may be used. Unbound reactants were removed via desalting or dialysis.
Each SSIA compound for assessment was solubilized in Buffer II at a concentration at least 10× of the working strength concentration.
25 μl of 1 mg/ml of dual-labeled (biotin and AK1) BSA M280 particles were mixed with 45 μl of working concentration SSIA in Buffer II. The assay volume brought to 85 μl by adding 15 μl of Buffer II. 15 μl of sample containing Btn-HRP:HRP at different ratios (The amount of biotinylated-HRP varied from 0, 1, 10, 100 and 250 ng/mL) was added. The reaction mixture was incubated for 30 min at 37° C., then 100 μL of trigger solution was added and the light intensity recorded. Total volume of reaction mixture, including trigger solution was 200 μL with a final concentration of 100 μM of SSIA.
The screening tests were performed using a modified DxI® Immunoassay System (Beckman Coulter, Inc. Brea, Calif.) as described above.

Structure (SMILES)	light intensity, BTN-HRP0	S1/S0	light intensity, BTN-HRP1	S2/S0	light intensity, BTN-HRP10	S3/S0	light intensity, BTN-HRP100	S4/S0	light intensity, BTN-HRP250	effectiveness as SSIA in the model system
O=C(O)CCCC[C@@H]1CCSS1 (racemic) [Lipoic Acid]	35,016	2	71,751	70.0	2,450,949	246.9	8,647,037	252.7	8,847,921	insuffient effectiveness
Oc1ccc(O)c(Cl)c1 [2-chloro-1,4-dihydroxybenzene]	3,571	1.1	4,007	52.9	188,920	170.8	610,053	245.3	875,831	–
Nc1ccc(C(=O)O)cc1O [4-Amino-3-hydroxy-benzoic acid]	972	2.9	2,808	454.2	441,455	6076.7	5,906,521	6587.9	6,403,425	demonstrating utility as SSIA
Cl.Nc1ccc(O)cc1O [4-aminoresorcinol hydrochloride]	675	1.7	1,163	110.8	74,764	489.0	330,056	384.5	259,541	–
Oc1ccc(Cl)cc1O [4-chloro catechol, 4-chlorocatechol]	93	2.2	205	14.8	1,373	4910.8	456,707	13558.5	1,260,937	demonstrating utility as SSIA
CC1(C)OC[C@@H]([C@H]2OC(=O)C(O)=C2O)O1 [5,6iso-propyliene ascorbic acid]	264	3.6	961	112.3	29,645	18626.9	4,917,499	33275	8,784,595	demonstrating utility as SSIA
Cc1c(O)cc2c(c1C)O[C@](C)(CCC[C@H](C)CCC[C@H](C)CCCC(C)C)CC2 [(+)-gamma-Tocopherol]	6,051	1.8	10,924	278.7	1,686,079	1437.5	8,698,069	1699.4	10,282,504	–
CCCCCCCCCCCCCCCC(=O)OC[C@H](O)[C@H]1OC(=O)C(O)=C1O [Ascorbic Acid 6-palmitate]	81	4	327	502.4	40,863	100662.3	8,187,204	125193.6	10,182,411	demonstrating utility as SSIA
N[C@@H](CS)C(=O)O [Cysteine]	35,695	1.6	58,203	69.6	2,483,411	256.3	9,147,371	285.5	10,190,505	insuffient effectiveness
COc1cc(/C=C/C(=O)O)ccc1O [Ferulic acid]	5,252	2.3	12,079	136.2	715,313	1672.9	8,785,865	1950.5	10,244,269	–
COc1ccc2[nH]cc(CCNC(C)=O)c2c1 [Melatonin]	54,528	1.3	70,741	43.7	2,381,361	173.7	9,471,431	190.2	10,370,061	insuffient effectiveness
CC(=O)N[C@@H](CS)C(=O)O [N-Ac-Cysteine, N-acetyl cysteine]	43,647	1.1	47,636	40.3	1,757,607	199	8,685,795	234.2	10,219,869	insuffient effectiveness
O=C(O)c1cccnc1 [Nicotinic Acid]	34,369	–	53,765	–	2,228,317	–	8,772,523	–	9,224,439	insuffient effectiveness
